Assay results: patent publication US4801597A, “Certain inositol-nicotinate ester derivatives and polyionic complexes therefore useful for treating diabetes meuitus, hyperlipidemia and lactic acidosis” (University of Florida, priority 1985, dated 1989)

Assays:
[1] = tested on: blood glucose; conditions: patients with diabetes mellitus; cited from earlier work
[2] = one human patient, about four months; resolved when treatment stopped; cited from earlier work
[3] = tested on: serum glucose; assay: Serum glucose lowering in fasted rats, single orogastric dose, monitored over 24 hours; format: in vivo; conditions: sodium DCA 100 mg/kg or derivative equivalent to 100 mg/kg DCA
Text: (§1) Results are expressed as (1) maximum percent decrease in glucose or lactace, relative to control, (2) the time at which the maximum changes occurred, and (3) the duration of action of the drug.

[4] = tested on: lactic acid levels; conditions: patients with lactic acidosis; cited from earlier work
[5] = tested on: lactate oxidation; conditions: animal tissues; cited from earlier work
[6] = cited from earlier work
[7] = tested on: hepatic glucose production; conditions: cited from earlier work
[8] = tested on: blood lactate; assay: Blood lactate lowering in fasted rats, single orogastric dose, monitored over 24 hours; format: in vivo; conditions: for duration of action (blood lactate decrease): single orogastric dose, sodium DCA 100 mg/kg or derivative equivalent to 100 mg/kg DCA
Text: as §1

[9] = tested on: blood cholesterol; conditions: patients with various forms of hyperlipidemia; cited from earlier work
[10] = tested on: circulating triglyceride and cholesterol; conditions: obese and diabetic animals; cited from earlier work
[11] = tested on: peripheral tissues; conditions: cited from earlier work
[12] = chronic administration, doses exceeding those used clinically; cited from earlier work
[13] = Comparative pharmacokinetic investigations (bioavailability, oxalate formation); format: in vivo; conditions: comparative pharmacokinetic investigations with DCA and Derivative 4

O=C(O)C(Cl)Cl [DCA, dichloroacetic acid]
blood glucose levels [1]: decrease blood glucose levels in patients with diabetes mellitus
polyneuropathy [2]: mild polyneuropathy that resolved when treatment stopped
duration of action (serum glucose decrease) [3]: 17 h
lactic acid levels and overall morbidity [4]: significantly decreases lactic acid levels and overall morbidity in patients with lactic acidosis
lactate oxidation [5]: stimulates lactate oxidation in animal tissues
in vivo oxidation [6]: oxidize in vivo to glyoxylate and subsequently to oxalate
hepatic glucose production [7]: inhibits hepatic glucose production
duration of action (blood lactate decrease) [8]: 18 h
blood cholesterol levels [9]: markedly decreases blood cholesterol levels
circulating triglyceride and cholesterol concentrations [10]: reduces circulating triglyceride and cholesterol concentrations
glucose uptake and utilization [11]: stimulates glucose uptake and utilization by peripheral tissues
chronic toxicity [12]: reversible peripheral neuropathy, changes in testicular morphology and lenticular opacities

O=C(OC1OC(C(=O)O)C(OC(=O)C(Cl)Cl)C(OC(=O)C(Cl)Cl)C1OC(=O)C(Cl)Cl)C(Cl)Cl (stereo not shown) [Derivative 1, potassium tetra(dichloroacetyl)glucuronate]
duration of action (serum glucose decrease) [3]: > 24 h
duration of action (blood lactate decrease) [8]: > 24 h

O=C(OC1C(O)C(OP(=O)(O)O)C(OC(=O)C(Cl)Cl)C(OC(=O)C(Cl)Cl)C1OC(=O)C(Cl)Cl)C(Cl)Cl (stereo not shown) [Derivative 2, inositol monophosphatetetradichloroacetate]
duration of action (serum glucose decrease) [3]: 24 h
duration of action (blood lactate decrease) [8]: > 24 h

O=C(OC1C(OC(=O)C(Cl)Cl)C(OC(=O)C(Cl)Cl)C(OC(=O)C(Cl)Cl)C(OC(=O)C(Cl)Cl)C1OC(=O)C(Cl)Cl)C(Cl)Cl (stereo not shown) [Derivative 3, inositol hexadichloroacetate]
duration of action (serum glucose decrease) [3]: 6 h
potency relative to DCA (blood lactate) ([8]; FIG. 2, dose equivalent to 100 mg/kg DCA): less potent than DCA
duration of action (blood lactate decrease) [8]: 8 h

C[n+]1cccc(C(=O)OC2C(OC(=O)c3ccc[n+](C)c3)C(OC(=O)c3ccc[n+](C)c3)C(OC(=O)c3ccc[n+](C)c3)C(OC(=O)c3ccc[n+](C)c3)C2OC(=O)c2ccc[n+](C)c2)c1 (stereo not shown) [Derivative 4, inositol hexa(N-methylnicotinate-dichloroacetate)]
duration of action (serum glucose decrease) [3]: > 24 h
formation of oxalate [13]: minimal and unlikely to be toxic
duration of action (blood lactate decrease) [8]: > 24 h
